Results published in ChEMBL document CHEMBL3808348, “Rational Design, Synthesis, and Biological Evaluation of 7-Azaindole Derivatives as Potent Focused Multi-Targeted Kinase Inhibitors” (J Med Chem, 2016).

Experiments:
[1] = target: Vascular endothelial growth factor receptor 2 (Homo sapiens) (UniProt P35968); experiment: Inhibition of full length His-tagged human recombinant VEGFR2 expressed in baculovirus using Fluorescein-Poly GT as substrate at 100 nM
[2] = target: Proto-oncogene tyrosine-protein kinase Src (Homo sapiens, UniProt P12931); experiment: Inhibition of full length His-tagged human recombinant cSRC expressed in baculovirus using Fluorescein-Poly GT as substrate at 100 nM
Proto-oncogene tyrosine-protein kinase Src, sequence (P12931 2-536 limits assumed): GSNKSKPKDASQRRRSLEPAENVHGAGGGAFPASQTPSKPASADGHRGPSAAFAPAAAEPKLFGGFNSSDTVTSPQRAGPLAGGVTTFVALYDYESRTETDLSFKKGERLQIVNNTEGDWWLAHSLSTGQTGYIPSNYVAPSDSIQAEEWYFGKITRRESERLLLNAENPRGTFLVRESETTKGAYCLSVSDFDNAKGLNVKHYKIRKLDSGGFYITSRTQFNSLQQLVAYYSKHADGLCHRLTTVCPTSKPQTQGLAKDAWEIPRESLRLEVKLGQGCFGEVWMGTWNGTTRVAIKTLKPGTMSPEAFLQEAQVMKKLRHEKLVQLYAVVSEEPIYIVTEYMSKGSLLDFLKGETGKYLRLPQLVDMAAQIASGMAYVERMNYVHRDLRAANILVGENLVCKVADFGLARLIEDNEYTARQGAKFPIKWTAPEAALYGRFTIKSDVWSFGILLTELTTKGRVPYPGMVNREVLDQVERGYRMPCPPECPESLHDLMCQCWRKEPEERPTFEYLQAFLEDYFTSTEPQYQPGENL

[3] = target: Serine/threonine-protein kinase B-raf (Homo sapiens) (UniProt P15056); experiment: Inhibition of full length GST-tagged human recombinant BRAF expressed in baculovirus using Fluorescein-MAP2K1 as substrate at 100 nM
Serine/threonine-protein kinase B-raf (Homo sapiens), sequence (P15056 whole entry, the tested form may be a part): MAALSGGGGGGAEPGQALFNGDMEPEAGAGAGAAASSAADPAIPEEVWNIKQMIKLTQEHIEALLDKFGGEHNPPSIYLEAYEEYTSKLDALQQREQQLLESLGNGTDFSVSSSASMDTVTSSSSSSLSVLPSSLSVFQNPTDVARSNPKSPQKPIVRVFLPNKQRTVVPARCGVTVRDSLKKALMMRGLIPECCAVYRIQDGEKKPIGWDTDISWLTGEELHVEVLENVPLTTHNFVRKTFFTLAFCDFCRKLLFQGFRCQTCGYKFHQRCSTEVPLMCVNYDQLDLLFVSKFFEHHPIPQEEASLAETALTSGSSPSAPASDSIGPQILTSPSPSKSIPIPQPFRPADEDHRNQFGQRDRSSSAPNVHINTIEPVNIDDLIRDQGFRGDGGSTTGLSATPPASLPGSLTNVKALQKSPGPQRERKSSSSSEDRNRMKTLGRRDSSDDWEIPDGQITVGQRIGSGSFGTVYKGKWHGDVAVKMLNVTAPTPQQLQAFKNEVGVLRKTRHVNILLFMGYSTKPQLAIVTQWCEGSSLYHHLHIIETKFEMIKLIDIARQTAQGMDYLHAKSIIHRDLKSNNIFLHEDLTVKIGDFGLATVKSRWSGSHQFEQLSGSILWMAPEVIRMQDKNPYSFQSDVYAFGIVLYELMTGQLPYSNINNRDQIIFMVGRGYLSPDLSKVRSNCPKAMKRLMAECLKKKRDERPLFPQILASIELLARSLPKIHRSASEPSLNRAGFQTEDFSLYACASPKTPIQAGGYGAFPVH

[4] = target: Epidermal growth factor receptor (Homo sapiens, UniProt P00533); experiment: Inhibition of GST-tagged human recombinant EGFR (668 to1210 residues) expressed in baculovirus using Fluorescein-Poly GT as substrate at 100 nM
Epidermal growth factor receptor, sequence (P00533 whole entry, the tested form may be a part): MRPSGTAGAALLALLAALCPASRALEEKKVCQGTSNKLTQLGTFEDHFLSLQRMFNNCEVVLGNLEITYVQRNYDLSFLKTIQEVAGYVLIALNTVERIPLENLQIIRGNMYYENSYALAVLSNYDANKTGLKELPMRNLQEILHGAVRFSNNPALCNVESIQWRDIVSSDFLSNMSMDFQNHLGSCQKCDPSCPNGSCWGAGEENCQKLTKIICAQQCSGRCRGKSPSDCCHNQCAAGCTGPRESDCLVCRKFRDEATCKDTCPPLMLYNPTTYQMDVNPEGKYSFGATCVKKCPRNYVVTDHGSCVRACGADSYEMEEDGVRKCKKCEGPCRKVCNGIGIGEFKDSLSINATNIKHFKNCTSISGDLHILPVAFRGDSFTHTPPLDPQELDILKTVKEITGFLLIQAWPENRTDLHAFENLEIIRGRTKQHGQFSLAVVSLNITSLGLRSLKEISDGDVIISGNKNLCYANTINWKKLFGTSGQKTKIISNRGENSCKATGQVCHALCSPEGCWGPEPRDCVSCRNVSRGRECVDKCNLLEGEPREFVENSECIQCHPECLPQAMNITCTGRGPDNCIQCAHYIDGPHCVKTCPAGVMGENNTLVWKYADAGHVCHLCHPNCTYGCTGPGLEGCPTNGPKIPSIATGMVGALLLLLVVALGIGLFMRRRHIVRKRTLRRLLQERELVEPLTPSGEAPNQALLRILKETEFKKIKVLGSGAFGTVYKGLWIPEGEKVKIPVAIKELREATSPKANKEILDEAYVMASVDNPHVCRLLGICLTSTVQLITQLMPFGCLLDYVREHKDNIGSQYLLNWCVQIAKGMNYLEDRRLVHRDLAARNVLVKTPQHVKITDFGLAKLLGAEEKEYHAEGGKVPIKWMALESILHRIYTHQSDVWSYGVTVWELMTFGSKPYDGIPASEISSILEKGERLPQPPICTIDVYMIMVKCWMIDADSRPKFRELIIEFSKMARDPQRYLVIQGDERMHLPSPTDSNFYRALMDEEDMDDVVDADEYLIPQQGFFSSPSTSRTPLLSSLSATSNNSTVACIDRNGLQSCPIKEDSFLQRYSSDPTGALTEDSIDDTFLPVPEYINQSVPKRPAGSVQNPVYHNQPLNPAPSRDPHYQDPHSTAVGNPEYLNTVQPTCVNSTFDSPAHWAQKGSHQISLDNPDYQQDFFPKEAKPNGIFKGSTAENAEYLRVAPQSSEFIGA

[5] = target: Fibroblast growth factor receptor 2 (Homo sapiens) (UniProt P21802); experiment: Inhibition of His-tagged human recombinant FGFR2 (403 to 822 residues) expressed in baculovirus using Fluorescein-Poly GT as substrate at 100 nM
Fibroblast growth factor receptor 2 (Homo sapiens), sequence (P21802 22-821 limits assumed): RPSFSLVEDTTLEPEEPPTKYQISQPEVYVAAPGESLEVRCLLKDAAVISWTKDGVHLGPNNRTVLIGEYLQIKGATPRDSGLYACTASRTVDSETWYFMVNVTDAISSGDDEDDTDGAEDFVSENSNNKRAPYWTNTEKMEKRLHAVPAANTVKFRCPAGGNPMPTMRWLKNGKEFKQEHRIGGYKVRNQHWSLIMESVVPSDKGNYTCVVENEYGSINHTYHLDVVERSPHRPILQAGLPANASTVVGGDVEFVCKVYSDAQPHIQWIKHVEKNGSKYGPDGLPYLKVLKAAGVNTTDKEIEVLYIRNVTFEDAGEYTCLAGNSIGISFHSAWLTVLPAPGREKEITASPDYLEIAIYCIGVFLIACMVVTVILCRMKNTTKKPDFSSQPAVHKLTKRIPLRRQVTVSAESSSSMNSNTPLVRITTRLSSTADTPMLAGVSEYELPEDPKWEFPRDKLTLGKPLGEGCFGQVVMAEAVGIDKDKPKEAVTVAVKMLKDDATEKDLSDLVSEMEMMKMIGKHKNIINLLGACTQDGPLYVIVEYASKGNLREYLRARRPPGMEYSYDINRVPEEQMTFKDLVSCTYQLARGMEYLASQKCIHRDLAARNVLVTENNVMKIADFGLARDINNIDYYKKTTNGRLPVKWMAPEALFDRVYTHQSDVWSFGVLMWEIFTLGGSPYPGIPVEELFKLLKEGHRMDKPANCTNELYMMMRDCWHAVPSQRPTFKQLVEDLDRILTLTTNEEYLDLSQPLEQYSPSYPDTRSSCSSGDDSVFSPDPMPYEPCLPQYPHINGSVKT

[6] = target: Platelet-derived growth factor receptor alpha (Homo sapiens, UniProt P16234); experiment: Inhibition of full length GST-tagged human recombinant PDGFRalpha expressed in baculovirus using Fluorescein-Poly GT as substrate at 100 nM
HepG2 = experiment: Antiproliferative activity against human HepG2 cells after 72 hrs by MTT assay; assay type: functional, cell-based; conditions: HepG2, 72 h
HUVEC = experiment: Antiangiogenic activity in HUVEC after 72 hrs by MTT assay; assay type: functional, cell-based; conditions: Homo sapiens

Vascular endothelial growth factor receptor 2 (Homo sapiens), sequence (P35968 whole entry): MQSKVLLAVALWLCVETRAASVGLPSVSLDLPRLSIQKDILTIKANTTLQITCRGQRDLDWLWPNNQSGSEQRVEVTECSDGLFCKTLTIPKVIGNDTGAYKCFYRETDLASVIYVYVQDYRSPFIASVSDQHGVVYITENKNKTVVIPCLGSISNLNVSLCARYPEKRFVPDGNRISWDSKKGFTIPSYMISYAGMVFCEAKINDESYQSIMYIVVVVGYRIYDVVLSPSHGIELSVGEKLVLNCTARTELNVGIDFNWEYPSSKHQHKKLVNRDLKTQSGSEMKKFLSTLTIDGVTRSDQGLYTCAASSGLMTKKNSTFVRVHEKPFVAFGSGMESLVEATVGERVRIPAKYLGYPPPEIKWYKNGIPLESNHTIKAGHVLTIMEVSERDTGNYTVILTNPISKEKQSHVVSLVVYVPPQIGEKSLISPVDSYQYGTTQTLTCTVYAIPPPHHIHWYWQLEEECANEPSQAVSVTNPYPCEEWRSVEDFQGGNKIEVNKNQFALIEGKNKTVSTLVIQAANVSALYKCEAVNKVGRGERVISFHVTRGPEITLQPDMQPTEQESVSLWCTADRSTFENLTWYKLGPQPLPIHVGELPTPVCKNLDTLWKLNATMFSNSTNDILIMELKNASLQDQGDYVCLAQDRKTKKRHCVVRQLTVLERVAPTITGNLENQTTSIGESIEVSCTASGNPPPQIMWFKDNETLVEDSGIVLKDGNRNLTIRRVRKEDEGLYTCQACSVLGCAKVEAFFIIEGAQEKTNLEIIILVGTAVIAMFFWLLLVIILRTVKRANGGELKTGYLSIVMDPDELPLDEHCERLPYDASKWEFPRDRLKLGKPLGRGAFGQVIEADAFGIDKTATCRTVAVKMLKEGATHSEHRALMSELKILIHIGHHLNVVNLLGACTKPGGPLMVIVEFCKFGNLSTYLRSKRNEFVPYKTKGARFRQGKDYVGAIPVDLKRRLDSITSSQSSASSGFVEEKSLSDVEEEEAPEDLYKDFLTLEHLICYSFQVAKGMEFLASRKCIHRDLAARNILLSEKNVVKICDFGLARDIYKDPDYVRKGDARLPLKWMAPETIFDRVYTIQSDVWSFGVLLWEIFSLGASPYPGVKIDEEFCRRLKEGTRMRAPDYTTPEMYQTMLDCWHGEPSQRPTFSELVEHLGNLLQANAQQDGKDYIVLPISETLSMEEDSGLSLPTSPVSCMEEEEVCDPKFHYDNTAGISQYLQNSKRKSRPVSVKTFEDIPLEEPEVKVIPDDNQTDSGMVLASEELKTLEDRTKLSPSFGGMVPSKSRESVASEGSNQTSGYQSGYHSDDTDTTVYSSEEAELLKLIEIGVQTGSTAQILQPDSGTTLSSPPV

Row | inhibition [1] | inhibition [2] | inhibition [3] | inhibition [4] | inhibition [5] | inhibition [6] | EC50 (HepG2) | SMILES | EC50 (HUVEC)
1 | 61% | 55% | 33% | 59% | 38% | 68% | – | COC(=O)c1cc2cc(/C=C/c3cc(NC(=O)c4ccc(CN5CCC(N(C)C)C5)c(C(F)(F)F)c4)ccc3C)cnc2[nH]1 (configuration not stated) | –
2 | 24% | 59% | 55% | 43% | 13% | 24% | – | CC(=O)c1cc2cc(NCc3cc(NC(=O)c4cc(-n5cnc(C)c5)cc(C(F)(F)F)c4)ccc3C)cnc2[nH]1 | –
3 | 93% | 100% | 46% | 76% | 94% | 94% | 977 nM | COC(=O)c1cc2cc(NC(=O)c3cc(NC(=O)c4ccc(CN5CCC(N(C)C)C5)c(C(F)(F)F)c4)ccc3C)cnc2[nH]1 (configuration not stated) | 631 nM
4 | 73% | 93% | 60% | 81% | 21% | 85% | > 1000 nM | COC(=O)c1cc2cc(NCc3cc(NC(=O)c4ccc(CN5CCN(C)CC5)cc4)ccc3C)cnc2[nH]1 | > 1000 nM
5 | 22% | 108% | 14% | 42% | 5% | 42% | – | COC(=O)c1cc2cc(NCc3cc(NC(=O)c4cc(N(C)C)cc(C(F)(F)F)c4)ccc3C)cnc2[nH]1 | –
6 | 59% | 85% | 63% | 35% | 1% | 87% | – | COC(=O)c1cc2cc(NCc3cc(NC(=O)c4cccc(Br)c4)ccc3C)cnc2[nH]1 | –
7 | 9% | 86% | 11% | 64% | 5% | 71% | – | COC(=O)c1cc2cc(NCc3cc(NC(=O)c4ccc(Cl)c(C(F)(F)F)c4)ccc3C)cnc2[nH]1 | –
8 | 18% | 34% | 69% | 20% | 4% | 77% | – | COC(=O)c1cc2cc(NCc3cc(NC(=O)c4ccc5nn[nH]c5c4)ccc3C)cnc2[nH]1 | –
9 | 97% | 94% | 71% | 65% | 8% | 41% | > 1000 nM | COC(=O)c1cc2cc(NC(=O)c3cc(NC(=O)c4ccc(CN5CCN(C)CC5)cc4)ccc3C)cnc2[nH]1 | > 1000 nM
10 | 19% | 74% | 16% | 64% | 10% | 47% | – | COC(=O)c1cc2cc(NCc3cc(NC(=O)c4ccc(C)c(C(F)(F)F)c4)ccc3C)cnc2[nH]1 | –
11 | 13% | 72% | 35% | 66% | -1% | 74% | – | COC(=O)c1cc2cc(NCc3cc(NC(=O)c4ccc(-c5csc(C)n5)cc4)ccc3C)cnc2[nH]1 | –
12 | 58% | 68% | 77% | 40% | 3% | 91% | > 1000 nM | COC(=O)c1cc2cc(NCc3cc(NC(=O)c4ccc5c(c4)OCO5)ccc3C)cnc2[nH]1 | 298 nM
13 | 93% | 98% | 86% | 99% | 23% | 95% | > 1000 nM | CNC(=O)c1cc2cc(NCc3cc(NC(=O)c4ccc(CN5CCN(C)CC5)cc4)ccc3C)cnc2[nH]1 | > 1000 nM
14 | 51% | 40% | 24% | 38% | 2% | 88% | – | COC(=O)c1cc2cc(/C=C/c3cc(NC(=O)c4ccc(CN5CCN(C)CC5)cc4)ccc3C)cnc2[nH]1 | –
15 | 67% | 58% | 7% | 81% | 14% | 98% | – | COC(=O)c1cc2cc(COc3cc(NC(=O)c4ccc(CN5CCN(C)CC5)cc4)ccc3C)cnc2[nH]1 | –
16 | 46% | 47% | 17% | 63% | 8% | 88% | – | COC(=O)c1cc2cc(CNc3cc(NC(=O)c4ccc(CN5CCN(C)CC5)cc4)ccc3C)cnc2[nH]1 | –
17 | 37% | 11% | 51% | 15% | 4% | 71% | – | COC(=O)c1cc2cc(NCc3cc(NC(=O)c4cc[nH]c4)ccc3C)cnc2[nH]1 | –

Row | inhibition [1] | inhibition [2] | inhibition [3] | inhibition [4] | inhibition [5] | inhibition [6] | EC50 (HepG2) | SMILES | EC50 (HUVEC)
18 | 96% | 96% | 92% | 80% | 75% | 90% | 673 nM | COC(=O)c1cc2cc(NCc3cc(NC(=O)c4ccc(CN5CCC(N(C)C)C5)c(C(F)(F)F)c4)ccc3C)cnc2[nH]1 (configuration not stated) | 689 nM
19 | 41% | 65% | 71% | -1% | 8% | 97% | – | COC(=O)c1cc2cc(NCc3cc(NC(=O)Cc4ccccc4Br)ccc3C)cnc2[nH]1 | –
20 | 98% | 91% | – | 98% | 35% | 99% | – | COC(=O)c1cc2cc(CCc3cc(NC(=O)c4ccc(CN5CCN(C)CC5)cc4)ccc3C)cnc2[nH]1 | –
21 | 89% | 89% | 95% | 72% | 19% | 93% | 510 nM | COC(=O)c1cc2cc(NCc3cc(NC(=O)c4cncc(C)c4)ccc3C)cnc2[nH]1 | > 1000 nM
22 | 58% | 69% | 18% | 91% | 49% | 63% | – | Cc1cn(-c2cc(C(=O)Nc3ccc(C)c(CNc4cnc5[nH]c(C(=O)O)cc5c4)c3)cc(C(F)(F)F)c2)cn1 | –
23 | 38% | 108% | 39% | 63% | 7% | 68% | – | COC(=O)c1cc2cc(NCc3cc(NC(=O)c4cccc(C(F)(F)F)c4)ccc3C)cnc2[nH]1 | –
24 | 88% | 87% | 35% | 99% | 5% | 96% | – | CC(=O)c1cc2cc(NCc3cc(NC(=O)c4ccc(CN5CCN(C)CC5)cc4)ccc3C)cnc2[nH]1 | –
25 | 42% | 78% | 62% | 16% | 12% | 93% | – | COC(=O)c1cc2cc(NCc3cc(NC(=O)c4ccccc4OC)ccc3C)cnc2[nH]1 | –
26 | 72% | 84% | 74% | 32% | 6% | 87% | – | COC(=O)c1cc2cc(NCc3cc(NC(=O)c4cccc(C)c4)ccc3C)cnc2[nH]1 | –
27 | 40% | 105% | 29% | 39% | 8% | 66% | – | COC(=O)c1cc2cc(NCc3cc(NC(=O)c4cccc(OC(F)(F)F)c4)ccc3C)cnc2[nH]1 | –
28 | 36% | 66% | 37% | 53% | 3% | 74% | – | COC(=O)c1cc2cc(NCc3cc(NC(=O)c4ccc(O)c(C(F)(F)F)c4)ccc3C)cnc2[nH]1 | –
29 | 0% | 39% | 50% | 81% | -7% | 76% | – | COC(=O)c1cc2cc(NCc3cc(NC(=O)c4ccc(C(F)(F)F)nc4)ccc3C)cnc2[nH]1 | –
30 | 29% | 58% | 61% | 2% | 6% | 87% | – | COC(=O)c1cc2cc(NCc3cc(NC(=O)Cc4cccc(C(F)(F)F)c4)ccc3C)cnc2[nH]1 | –
31 | 32% | 99% | 24% | 52% | 15% | 61% | – | COC(=O)c1cc2cc(NCc3cc(NC(=O)c4cccc(C(C)C)c4)ccc3C)cnc2[nH]1 | –
32 | 80% | 86% | 33% | 98% | 71% | 66% | – | Cc1ccc(NC(=O)c2ccc(CN3CCC(N(C)C)C3)c(C(F)(F)F)c2)cc1CNc1cnc2[nH]c(C(=O)O)cc2c1 (configuration not stated) | –
33 | 13% | 42% | -7% | 32% | -2% | 42% | – | COC(=O)c1cc2cc(NCc3cc(NC(=O)c4ccnc(C(F)(F)F)c4)ccc3C)cnc2[nH]1 | –
34 | 72% | 75% | 12% | 96% | 14% | 79% | – | Cc1ccc(NC(=O)c2ccc(CN3CCN(C)CC3)cc2)cc1CNc1cnc2[nH]c(C(=O)O)cc2c1 | –
